{
  "source": "paper PMC12169615",
  "about": "“Fluorescent 4‑Nitrobenzo-2-oxa-1,3-diazole-Coupled Bile Acids as Probe Substrates of Hepatic and Intestinal Bile Acid Transporters of the Solute Carrier Families SLC10 and SLCO” (Journal of Medicinal Chemistry, 2025)",
  "key": {"[1]": {"parameters": "method as in Petzinger et al.", "settings": "after in situ ileal perfusion, rat, within 120 min; ref Petzinger et al.; cited from earlier work"}, "human ASBT": {"target": "T1, human ASBT (Homo sapiens, UniProt Q12908)", "T1 sequence (Q12908 1-348)": "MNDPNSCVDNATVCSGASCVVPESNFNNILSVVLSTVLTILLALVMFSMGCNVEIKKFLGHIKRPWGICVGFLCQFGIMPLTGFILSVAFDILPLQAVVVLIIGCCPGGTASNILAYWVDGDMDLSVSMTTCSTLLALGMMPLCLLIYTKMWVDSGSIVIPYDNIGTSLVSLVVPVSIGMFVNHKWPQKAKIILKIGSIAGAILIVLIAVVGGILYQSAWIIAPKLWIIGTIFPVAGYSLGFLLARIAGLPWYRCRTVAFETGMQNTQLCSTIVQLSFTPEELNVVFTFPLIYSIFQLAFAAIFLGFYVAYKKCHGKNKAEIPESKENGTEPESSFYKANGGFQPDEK", "test": "cell-based", "description": "(§1) HEK293 cells stably expressing human NTCP (A), mouse mNtcp (B), human ASBT (C), or mouse mAsbt (D) were used for transport experiments with 3α-NBD-GCA (16d) as the substrate. Fluorescence data in the absence of inhibitors were set as 100% and the fluorescence levels in sodium-free transport buffer were set to 0%. […] Half-maximal inhibitory concentrations (IC50) were calculated by nonlinear regression analysis.\n(§2) For quantitative transport experiments, cells were seeded onto polylysine-coated 96-well plates and grown to confluence over 72 h at 37 °C. Then, cells were washed three times with phosphate-buffered saline (PBS), containing 137 mM NaCl, 2.7 mM KCl, 1.5 mM, KH2PO4, and 7.3 mM Na2HPO4 (pH 7.4) followed by preincubation in sodium transport buffer (STB) containing 142.9 mM NaCl, 4.7 mM KCl, 1.2 mM MgSO4, 1.2 mM KH2PO4, 1.8 mM CaCl2, and 20 mM HEPES (pH 7.4). For transport assays under sodium-free conditions (-Na^+), sodium chloride of the STB was substituted with equimolar concentrations of choline chloride. […] Then, transport experiments were started by adding 20 μL STB containing 125 μM of 3α-NBD-GCA (final substrate concentration: 25 μM). All transport experiments were stopped after 10 min, if not otherwise indicated, by aspirating the transport buffer and washing the cells twice with ice-cold PBS. […]"}, "mouse mAsbt": {"target": "T2, mouse mAsbt (Mus musculus, UniProt P70172)", "T2 sequence (P70172 1-348)": "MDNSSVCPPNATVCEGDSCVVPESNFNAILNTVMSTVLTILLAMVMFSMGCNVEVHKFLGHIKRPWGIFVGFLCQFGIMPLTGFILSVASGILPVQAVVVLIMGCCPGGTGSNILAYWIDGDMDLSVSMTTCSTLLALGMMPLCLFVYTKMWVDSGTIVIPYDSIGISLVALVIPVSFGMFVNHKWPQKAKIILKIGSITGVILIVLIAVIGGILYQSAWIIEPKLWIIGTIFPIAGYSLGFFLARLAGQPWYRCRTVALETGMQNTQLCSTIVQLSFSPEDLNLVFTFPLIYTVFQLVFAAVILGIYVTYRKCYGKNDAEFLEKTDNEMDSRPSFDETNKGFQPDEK", "test": "cell-based", "description": "as §1, §2"}},
  "data": [
    {"smiles": "C[C@H](CCC(=O)NCCS(=O)(=O)O)[C@H]1CC[C@H]2[C@@H]3[C@H](O)C[C@@H]4CC(Nc5ccc([N+](=O)[O-])c6nonc56)CC[C@]4(C)[C@H]3C[C@H](O)[C@]12C", "note": "(stereo partly drawn) [S4148]", "values": [
      {"measurement": "Compound secreted into bile", "setting": "[1]", "value": 76, "unit": "%"}
    ]},
    {"smiles": "Cc1c(C)c2c(c(C)c1O)CCC(C)(COc1ccc(CC3SC(=O)NC3=O)cc1)O2", "note": "(stereo not drawn) [troglitazone]", "values": [
      {"measurement": "IC50", "setting": "human ASBT", "value": 19.5, "unit": "µM"},
      {"measurement": "IC50", "setting": "mouse mAsbt", "value": 18.9, "unit": "µM"}
    ]}
  ]
}
